Measured values from patent US20110020239A1, “METHODS FOR IN VIVO IMAGING OF CELLS” (The Johns Hopkins University, priority 2007, published 2011).

Legend:
[1] = system: human islets; test: Microfluorometric viability assay (Newport Green / propidium iodide) of labeled islets; assay type: cell-based
Procedure: Fresh human cadaveric islets were provided by the Joslin Diabetes Research Center (Boston, Mass.) under an approved protocol of the National Islet Cell Resource Program. Islets were cultured in RPMI 1640 medium (Gibco), supplemented with 10% fetal calf serum and 1% penicillin/streptomycin/L-glutamine (all reagents from Sigma Co) in a humidified CO2 incubator at 37° C. and a 5% CO2 atmosphere. Islets were cultured in tissue culture plates and culture media was replaced every 3 days. For all Feridex labeled islets, islets were initially labeled with procedure described below and then were cultured in contrast free medium. In the case of PFC labeled islets, the respective PFC was supplemented to each change of culture medium throughout the entire culture period.
Viability of labeled human islets was determined using a microfluorometric assay. Cells were incubated for 30 minutes with […] Newport Green (NG, Sigma, St. Louis, Mo.), which stains viable cell cytoplasm green. Following NG staining, islets were incubated for 10 minutes with 5 mM propidium iodide (PI, Sigma, St. Louis, Mo.), which emits red fluorescence when bound to nucleic acids. NG was excited by using a 500 nm laser line and emitted fluorescence was detected using a 535 nm long-pass filter. PI was excited by using a 514 nm laser line and emitted fluorescence was detected using a 550 nm long-pass filter. NG stained cells (green) were counted as viable, while PI stained cells (red) were counted as dead. In cases of dual staining, the cells were considered dead.

[2] = system: human islets; test: Insulin secretion assay (static incubation, C-peptide ELISA); assay type: cell-based; set-up: glucose responsiveness stimulation index: dose or concentration left out as unconfirmed; details: for difference in glucose responsiveness stimulation index between PFOB and PFPE: PFOB vs PFPE, p>0.05; for glucose responsiveness stimulation index: increase of insulin secretion
Procedure: A static incubation assay was used to assess the insulin secretion response of labeled human islets. One hundred islets were placed in a culture insert (membrane pore diameter 12 μm; Millicell PCF) in six-well plates. The insulin secretion was measured after 1.5 hrs in a solution of a specific glucose level. […] Aliquots of the medium were stored at −80° C. The C-peptide content of the samples was determined with an enzyme-linked, immunosorbent assay (ultrasensitive human c-peptide ELISA, Alpco Diagnostics); results (in ng/ml) were expressed as the means of three independent experiments. The C-peptide secretion was also assessed at 7 days and at 14 days following islet encapsulation, using 8 mM glucose and 90 min incubation.

[3] = 19F NMR of PFCs (aqueous solubility); assay type: physicochemical; details: 19F NMR experiments
Excerpt: In the ^19F NMR spectrum of PFOB, eight resonance peaks are observable, one for each carbon position.

[4] = system: dendritic cells; details: Ahrens, Flores et al. 2005; cited from earlier work

Row | SMILES | islet viability compared to both Feridex labeled and unlabeled islets [1] | percentage survival of labeled islets compared to unlabeled control islets ([1]; all days / all time points (days 1, 7, 14)) | difference in glucose responsiveness stimulation index between PFOB and PFPE [2] | glucose responsiveness stimulation index [2] | glucose responsiveness of labeled vs unlabeled islets ([2]; insulin secretion assays) | aqueous solubility [3] | percentage survival of labeled islets compared to unlabeled control islets ([1]; days 7 and 14, p<0.05) | effect on dendritic cell proliferation, function, or maturation [4]
1 | FC(F)(F)C(F)(F)C(F)(F)C(F)(F)C(F)(F)C(F)(F)C(F)(F)C(F)(F)Br [PFOB, perfluorooctylbromide] | significant increase in viability | statistically significant increase | no significant statistical difference | 2.19 | no significant difference | below the limit of detection |  | 
2 | FC1(F)OC(F)(F)C(F)(F)OC(F)(F)C(F)(F)OC(F)(F)C(F)(F)OC(F)(F)C(F)(F)OC1(F)F [PFPE, perfluoro-15-crown-5 ether] |  |  | no significant statistical difference | 2.07 |  |  | significant statistical differences | no effect
